Experimental data: US8580965B2, “Substituted sulfonamide compounds” (Gruenenthal GmbH, priority 2006, dated 2013)

Tests used:
[1] = biological target: T1, B1R receptor of the rat (bradykinin 1 receptor) (Rattus norvegicus, UniProt P97583); assay: FLIPR Ca2+ assay (Fluo-4) on CHO K1 cells stably transfected with the B1R gene of the rat; % activation and % inhibition at 10 μM; assay type: cell-based; details: CHO-K1, test substance 10 μM; CHO K1 rB1R cells; Ca2+ inflow after 100 nM Des-Arg9-bradykinin; read-out: B1R antagonism, rat [10 μM] % inhibition
T1 construct: host or cells: CHO K1 cells (rB1R cells)
T1 sequence (P97583 1-337): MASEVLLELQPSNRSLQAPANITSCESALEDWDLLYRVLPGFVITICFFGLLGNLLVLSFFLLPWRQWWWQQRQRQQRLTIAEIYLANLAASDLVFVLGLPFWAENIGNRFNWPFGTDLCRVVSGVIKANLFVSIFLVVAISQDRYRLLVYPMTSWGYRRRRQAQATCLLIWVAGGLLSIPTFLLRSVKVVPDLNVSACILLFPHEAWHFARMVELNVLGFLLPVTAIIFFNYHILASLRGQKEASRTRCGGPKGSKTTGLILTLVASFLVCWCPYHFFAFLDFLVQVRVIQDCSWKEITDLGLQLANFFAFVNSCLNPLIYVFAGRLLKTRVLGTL
Summary of the method: (§1)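 CHO K1 cells stably expressing human or rat B1R, Fluo-4 loaded, read by FLIPR (peak fluorescence). Compound at 10 µM first gives % activation versus agonist; after 10 min, agonist (human: 0.5 nM Lys-Des-Arg9-bradykinin; rat: 100 nM Des-Arg9-bradykinin) gives % inhibition relative to maximal inhibition.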

[2] = biological target: T2, human B1R receptor (bradykinin 1 receptor) (Homo sapiens, UniProt P46663); assay: FLIPR Ca2+ assay (Fluo-4) on CHO K1 cells stably transfected with the human B1R gene; % activation and % inhibition at 10 μM; assay type: cell-based; details: CHO-K1, test substance 10 μM; CHO K1 hB1R cells; Ca2+ inflow after 0.5 nM Lys-Des-Arg9-bradykinin; read-out: B1R antagonism, human [10 μM] % inhibition
T2 construct: host or cells: CHO K1 cells (hB1R cells)
T2 sequence (P46663 1-353): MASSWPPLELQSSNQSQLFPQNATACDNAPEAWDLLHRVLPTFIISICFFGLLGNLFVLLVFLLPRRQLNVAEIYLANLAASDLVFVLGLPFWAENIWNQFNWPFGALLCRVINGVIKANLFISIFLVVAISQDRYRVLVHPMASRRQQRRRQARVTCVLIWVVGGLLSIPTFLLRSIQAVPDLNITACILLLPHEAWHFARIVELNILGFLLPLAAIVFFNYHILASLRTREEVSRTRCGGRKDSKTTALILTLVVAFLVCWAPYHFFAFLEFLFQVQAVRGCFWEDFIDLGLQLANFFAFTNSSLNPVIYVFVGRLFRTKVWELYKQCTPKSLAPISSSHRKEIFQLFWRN
Summary of the method: as §1

SMILES	inhibition at 10 µM [1] [%]	inhibition at 10 µM [2] [%]
O=C(COCC1CCCCN1S(=O)(=O)c1c(Cl)cccc1Cl)N1CCC(O)(c2ccc(Br)cc2)CC1 (stereo not shown) [Example 234, 1-(4-(4-bromophenyl)-4-hydroxypiperidin-1-yl)-2-((1-(2,6-dichlorophenylsulfonyl)piperidin-2-yl)methoxy)ethanone]	99.3	102
O=C(COCC1CCCCN1S(=O)(=O)c1c(Cl)cccc1Cl)N1CCC(O)(c2cccc(C(F)(F)F)c2)CC1 (stereo not shown) [Example 235, 2-((1-(2,6-dichlorophenylsulfonyl)piperidin-2-yl)methoxy)-1-(4-hydroxy-4-(3-(trifluoromethyl)phenyl)piperidin-1-yl)ethanone]	99.9	103
O=C(COCC1CCCCN1S(=O)(=O)c1c(Cl)cccc1Cl)N1CCC(O)(c2ccc(Cl)c(C(F)(F)F)c2)CC1 (stereo not shown) [Example 236, 1-(4-(4-chloro-3-(trifluoromethyl)phenyl)-4-hydroxypiperidin-1-yl)-2-((1-(2,6-dichlorophenylsulfonyl)piperidin-2-yl)methoxy)ethanone]	99.9	102
COc1cc(C)c(S(=O)(=O)N(CCOCC(=O)N2CCC(O)(c3ccc(Cl)c(C(F)(F)F)c3)CC2)CC2CC2)c(C)c1C [Example 237, N-(2-(2-(4-(4-chloro-3-(trifluoromethyl)phenyl)-4-hydroxypiperidin-1-yl)-2-oxoethoxy)ethyl)-N-(cyclopropylmethyl)-4-methoxy-2,3,6-trimethylphenyl-sulfonamide]	100	103
COc1cc(C)c(S(=O)(=O)N(CCOCC(=O)N2CCC(O)(c3ccc(Cl)c(C(F)(F)F)c3)CC2)CC(C)C)c(C)c1C [Example 238, N-(2-(2-(4-(4-chloro-3-(trifluoromethyl)phenyl)-4-hydroxypiperidin-1-yl)-2-oxoethoxy)ethyl)-N-isobutyl-4-methoxy-2,3,6-trimethylphenylsulfonamide]	97.4	57.3
COc1cc(C)c(S(=O)(=O)N2CCCC2COCC(=O)N2CCC(O)(c3cccs3)CC2)c(C)c1 (stereo not shown) [Example 239, 1-(4-hydroxy-4-(thiophen-2-yl)piperidin-1-yl)-2-((1-(4-methoxy-2,6-dimethylphenylsulfonyl)pyrrolidin-2-yl)methoxy)ethanone]	98.9	105
COc1cc(C)c(S(=O)(=O)N(CCOCC(=O)N2CCC(O)(c3cccnc3)CC2)CC2CC2)c(C)c1C [Example 240, N-(cyclopropylmethyl)-N-(2-(2-(4-hydroxy-4-(pyridin-3-yl)piperidin-1-yl)-2-oxoethoxy)ethyl)-4-methoxy-2,3,6-trimethylphenylsulfonamide]	99.4	103
COc1cc(C)c(S(=O)(=O)N(CCOCC(=O)N2CCC(O)(c3cccnc3)CC2)CC(C)C)c(C)c1C [Example 241, N-(2-(2-(4-hydroxy-4-(pyridin-3-yl)piperidin-1-yl)-2-oxoethoxy)ethyl)-N-isobutyl-4-methoxy-2,3,6-trimethylphenylsulfonamide]	101	103
COc1cc(C)c(S(=O)(=O)N2CCCCC2COCC(=O)N2CCC(O)(c3ccc(Cl)cc3)CC2)c(C)c1 (stereo not shown) [Example 242, 1-(4-(4-chlorophenyl)-4-hydroxypiperidin-1-yl)-2-((1-(4-methoxy-2,6-dimethylphenylsulfonyl)piperidin-2-yl)methoxy)ethanone]	98.4	101
COc1cc(C)c(S(=O)(=O)N2CCCCC2COCC(=O)N2CCC(O)(c3ccc(Br)cc3)CC2)c(C)c1 (stereo not shown) [Example 243, 1-(4-(4-bromophenyl)-4-hydroxypiperidin-1-yl)-2-((1-(4-methoxy-2,6-dimethylphenylsulfonyl)piperidin-2-yl)methoxy)ethanone]	96.8	104
COc1cc(C)c(S(=O)(=O)N2CCCCC2COCC(=O)N2CCC(O)(c3ccc(Cl)c(C(F)(F)F)c3)CC2)c(C)c1 (stereo not shown) [Example 246, 1-(4-(4-chloro-3-(trifluoromethyl)phenyl)-4-hydroxypiperidin-1-yl)-2-((1-(4-methoxy-2,6-dimethylphenylsulfonyl)piperidin-2-yl)methoxy)ethanone]	99	103
Cc1cc(S(=O)(=O)N(C)CCOCC(=O)N2CCC(O)(c3ccc(Cl)cc3)CC2)c(C)s1 [Example 256, N-(2-(2-(4-(4-chlorophenyl)-4-hydroxypiperidin-1-yl)-2-oxoethoxy)ethyl)-N,2,5-trimethylthiophene-3-sulfonamide]	90.7	56.3
Cc1cc(S(=O)(=O)N(C)CCOCC(=O)N2CCC(O)(c3ccc(Br)cc3)CC2)c(C)s1 [Example 257, N-(2-(2-(4-(4-bromophenyl)-4-hydroxypiperidin-1-yl)-2-oxoethoxy)ethyl)-N,2,5-trimethylthiophene-3-sulfonamide]	101	49.4
Cc1cc(S(=O)(=O)N(C)CCOCC(=O)N2CCC(O)(c3cccc(C(F)(F)F)c3)CC2)c(C)s1 [Example 258, N-(2-(2-(4-hydroxy-4-(3-(trifluoromethyl)phenyl)piperidin-1-yl)-2-oxoethoxy)ethyl)-N,2,5-trimethylthiophene-3-sulfonamide]	96.1	71.5

Next, values leading:

inhibition at 10 µM [1] [%]	inhibition at 10 µM [2] [%]	SMILES
99.3	105	COc1cc(C)c(S(=O)(=O)N2CCCCC2COCC(=O)N2CCC(O)(c3ccccc3)CC2)c(C)c1 (stereo not shown) [Example 244, 1-(4-hydroxy-4-phenylpiperidin-1-yl)-2-((1-(4-methoxy-2,6-dimethylphenylsulfonyl)piperidin-2-yl)methoxy)ethanone]
97.7	99.8	COc1cc(C)c(S(=O)(=O)N2CCCCC2COCC(=O)N2CCC(O)(Cc3ccccc3)CC2)c(C)c1 (stereo not shown) [Example 245, 1-(4-benzyl-4-hydroxypiperidin-1-yl)-2-((1-(4-methoxy-2,6-dimethylphenylsulfonyl)piperidin-2-yl)methoxy)ethanone]
85.1	40	O=C(COCC1CCN(S(=O)(=O)c2c(Cl)cc(Cl)cc2Cl)C1)N1CCC(O)(Cc2ccccc2)CC1 (stereo not shown) [Example 248, 1-(4-benzyl-4-hydroxypiperidin-1-yl)-2-((1-(2,4,6-trichlorophenylsulfonyl)pyrrolidin-3-yl)methoxy)ethanone]
87.3	70.8	O=C(COC1CCCN(S(=O)(=O)c2c(Cl)cc(Cl)cc2Cl)C1)N1CCC(O)(Cc2ccccc2)CC1 (stereo not shown) [Example 249, 1-(4-benzyl-4-hydroxypiperidin-1-yl)-2-(1-(2,4,6-trichlorophenylsulfonyl)piperidin-3-yloxy)ethanone]
76.3	18	O=C(COC1CCCN(S(=O)(=O)c2c(Cl)cc(Cl)cc2Cl)C1)N1CCC(O)(c2ccc(Cl)c(C(F)(F)F)c2)CC1 (stereo not shown) [Example 250, 1-(4-(4-chloro-3-(trifluoromethyl)phenyl)-4-hydroxypiperidin-1-yl)-2-(1-(2,4,6-trichlorophenylsulfonyl)piperidin-3-yloxy)ethanone]
92.9	47.8	COc1cc(C)c(S(=O)(=O)N2CCCC(COCC(=O)N3CCC(O)(c4ccc(Cl)cc4)CC3)C2)c(C)c1 (stereo not shown) [Example 251, 1-(4-(4-chlorophenyl)-4-hydroxypiperidin-1-yl)-2-((1-(4-methoxy-2,6-dimethylphenylsulfonyl)piperidin-3-yl)methoxy)ethanone]
100	32.7	COc1cc(C)c(S(=O)(=O)N2CCCC(COCC(=O)N3CCC(O)(Cc4ccccc4)CC3)C2)c(C)c1 (stereo not shown) [Example 252, 1-(4-benzyl-4-hydroxypiperidin-1-yl)-2-((1-(4-methoxy-2,6-dimethylphenylsulfonyl)piperidin-3-yl)methoxy)ethanone]
36.8	62.5	O=C(COCC1CCCN(S(=O)(=O)c2c(Cl)cc(Cl)cc2Cl)C1)N1CCC(O)(c2ccc(Cl)cc2)CC1 (stereo not shown) [Example 254, 1-(4-(4-chlorophenyl)-4-hydroxypiperidin-1-yl)-2-((1-(2,4,6-trichlorophenylsulfonyl)piperidin-3-yl)methoxy)ethanone]
73.7	82.5	O=C(COCC1CCCN(S(=O)(=O)c2c(Cl)cc(Cl)cc2Cl)C1)N1CCC(O)(c2ccccc2)CC1 (stereo not shown) [Example 255, 1-(4-hydroxy-4-phenylpiperidin-1-yl)-2-((1-(2,4,6-trichlorophenylsulfonyl)piperidin-3-yl)methoxy)ethanone]
